Results taken from paper PMC11881016, “Deep‐Learning‐Based Approaches for Rational Design of Stapled Peptides With High Antimicrobial Activity and Stability” (Microbial Biotechnology, 2025).
Values after ≈ are worked out from the molar mass of the structure shown. Read-outs that look alike come from different tables or passages of the source. *1 amine or outer side, *2 acyl side, *3 side chain or, on linkers, in order; H or OH if unused. Where a SMILES comes first, the peptide text is derived from it. Bridges are numbered along the chain shown (N, C = ends). Where no end group is shown, it is not given here. [ ]: non-standard residue; d: D form. X1 = O=C([C@H](CCCCNCC=[*:3])N[*:1])[*:2]; Octanediyl(1,8) = C(CCCC[*:2])CCC[*:1]; X2 = C(CCCCC[*:2])CCCC[*:1]

Columns and labels:
[1] = test system: Staphylococcus aureus (S. aureus, ATCC6538P); assay type: cell-based; conditions: ATCC6538
Procedure: (§1) Escherichia coli ( E. coli , ATCC25922), Klebsiella pneumoniae ( K. pneumoniae , ATCC10031), Staphylococcus aureus ( S. aureus , ATCC6538P), Pseudomonas aeruginosa ( P. aeruginosa , ATCC27853) and methicillin‐resistant Staphylococcus aureus (MRSA) were used to evaluate the antimicrobial activity of the peptides and were purchased from BeNa Culture Collection.
(§2) The MICs of the peptides in vitro were determined using the broth microdilution method with minor modifications (Wiegand et al. [2008]). Peptides were incubated with bacteria (about 5 × 10^5 CFU/mL), and PBS was used as the negative control. After 18–24 h of incubation at 37°C, the bacteria were checked for growth by recording the values at OD600, with three replicates in each group.

[2] = test system: Klebsiella pneumoniae (K. pneumoniae, ATCC10031); assay type: cell-based; conditions: for MIC K. pneumoniae: ATCC10031; for increase of antimicrobial activity against K. pneumoniae: stapled peptide compared to its linear peptide
Procedure: as §1, §2

[3] = test system: Escherichia coli (E. coli, ATCC25922); assay type: cell-based
Procedure: as §1, §2

[4] = test system: Pseudomonas aeruginosa (P. aeruginosa, ATCC27853); assay type: cell-based
Procedure: as §1, §2

[5] = test system: methicillin‐resistant Staphylococcus aureus (MRSA); assay type: cell-based; conditions: for MIC MRSA: methicillin‐resistant; for increase of antibacterial activity against MRSA: stapled peptide compared to its linear peptide
Procedure: as §1, §2

[6] = test system: any bacteria; assay: Wet experiment result (antimicrobial activity of the synthesised peptides, positive/negative); assay type: cell-based; conditions: experiment data set (Supplement S12)
Excerpt: Supplement MBT2-18-e70121-s002.doc, table 9 | column: Wet Exp. Result

[7] = Serum stability assay (residual antimicrobial activity against E. coli); assay type: in vitro ADME, bovine
Procedure: The serum stability assay was conducted as described by Li et al. ([2020]) with minor modifications. In brief, each peptide was dissolved in PBS solution containing 25% foetal bovine serum (FBS) at a final concentration of 2048 μg/mL and diluted after incubation for 8 h. E. coli was used as the bacterium for the stability assay, and the bacterial inhibition experiment was performed according to the bacterial inhibitory activity assay. Residual activity was calculated using the following formula: Residual activity=MICbefore/MICafter
• where MICbefore represents the MICs against E. coli before incubation, and MICafter represents the MICs against E. coli after incubation for 8 h.

Molecule | MIC S. aureus [1] [µg/mL] | MIC K. pneumoniae [2] [µg/mL] | increase of antimicrobial activity against K. pneumoniae [2] | MIC E. coli [3] [µg/mL] | MIC P. aeruginosa [4] [µg/mL] | MIC MRSA [5] [µg/mL] | increase of antibacterial activity against MRSA [5] [fold] | Wet Exp. Result [6] | residual antimicrobial activity after incubation in 25% serum (in words) [7] | decrease of residual antimicrobial activity after incubation in 25% serum [7] | residual antimicrobial activity after incubation in 25% serum (in words) ([7]; 25% foetal bovine serum, 8 h, MIC against E. coli, Figure 7L)
CC[C@H](C)[C@H](NC(=O)[C@@H](N)CCCNC(=N)N)C(=O)N[C@@H](CC(C)C)C(=O)N[C@@H](CCCNC(=N)N)C(=O)N[C@@H](CCCCN)C(=O)N[C@@H](CC(C)C)C(=O)N[C@@H](CCCNC(=N)N)C(=O)N[C@H]1CCCCNC/C=C/CNCCCC[C@@H](C(=O)O)NC(=O)[C@H](CC(C)C)NC(=O)[C@H](Cc2ccccc2)NC(=O)[C@H](CCCNC(=N)N)NC1=O [GAN‐P2‐4‐St] (H-RILRKLR[X1]RFL[X1]-OH; staple (E) 8-12) | 4 (≈ 2.38 µM) | 2 (≈ 1.19 µM) | 2–4 fold | 16 (≈ 9.53 µM) | 16 (≈ 9.53 µM) | 16 (≈ 9.53 µM) | 4 | Positive | – | – | –
CC[C@H](C)[C@H](NC(=O)CN)C(=O)NCC(=O)N[C@@H](CCCCN)C(=O)N[C@@H](Cc1ccccc1)C(=O)N[C@@H](CC(C)C)C(=O)N[C@@H](Cc1c[nH]cn1)C(=O)N[C@@H](CO)C(=O)N[C@@H](C)C(=O)N[C@@H](CCCCN)C(=O)N[C@@H](CCCCN)C(=O)N[C@@H](Cc1ccccc1)C(=O)NCC(=O)N[C@@H](CCCCN)C(=O)N[C@@H](C)C(=O)N[C@@H](Cc1ccccc1)C(=O)N[C@H](C(=O)N[C@H]1CSSC[C@@H](C(=O)N[C@@H](CO)C(=O)O)NC(=O)[C@H](CC(C)C)NC(=O)[C@H]([C@@H](C)CC)NC(=O)[C@H](CCC(=O)O)NC1=O)C(C)C [Mag2(i + 4)17Dc] (H-GIGKFLHSAKKFGKAFVCEILCS-OH; disulfide 18-22) | 8 | 16 | – | 16 | 64 | – | – | – | significantly decreased | – | –
CC[C@H](C)[C@H](NC(=O)[C@H](CCC(=O)O)NC(=O)CNC(=O)[C@@H](NC(=O)[C@H](Cc1ccccc1)NC(=O)[C@H](C)NC(=O)[C@H](CCCCN)NC(=O)CNC(=O)[C@H](Cc1ccccc1)NC(=O)[C@H](CCCCN)NC(=O)[C@H](CCCCN)NC(=O)[C@H](C)NC(=O)[C@H](CO)NC(=O)[C@H](Cc1c[nH]cn1)NC(=O)[C@H](CC(C)C)NC(=O)[C@@H]1CSCCCCCCCCSC[C@H](N)C(=O)N[C@@H]([C@@H](C)CC)C(=O)NCC(=O)N[C@@H](CCCCN)C(=O)N1)C(C)C)C(=O)N[C@@H](CC(C)C)C(=O)N[C@@H](CC(N)=O)C(=O)N[C@@H](CO)C(=O)O [Mag(i + 4)0St] (H-CIGKCLHSAKKFGKAFVGEILNS-OH; linker 1-5 via Octanediyl(1,8); N-terminus and C-terminus assumed) | 32 | 16 | – | 4 | 32 | – | – | Positive | – | approximately 50% | –
CC[C@H](C)[C@H](NC(=O)CN)C(=O)NCC(=O)N[C@@H](CCCCN)C(=O)N[C@@H](Cc1ccccc1)C(=O)N[C@@H](CC(C)C)C(=O)N[C@@H](Cc1c[nH]cn1)C(=O)N[C@@H](CO)C(=O)N[C@@H](C)C(=O)N[C@@H](CCCCN)C(=O)N[C@@H](CCCCN)C(=O)N[C@H]1CSCCCCCCCCCCSC[C@@H](C(=O)N[C@H](C(=O)N[C@@H](CC(C)C)C(=O)N[C@@H](CC(N)=O)C(=O)N[C@@H](CO)C(=O)O)[C@@H](C)CC)NC(=O)CNC(=O)[C@H](C(C)C)NC(=O)[C@H](Cc2ccccc2)NC(=O)[C@H](C)NC(=O)[C@H](CCCCN)NC(=O)CNC1=O [Mag(i + 7)11St] (H-GIGKFLHSAKKCGKAFVGCILNS-OH; linker 12-19 via X2) | 2 | 8 | – | 16 | 32 | – | – | Positive | remained unchanged | – | –
CC[C@H](C)[C@H](NC(=O)[C@H](CCCNC(=N)N)NC(=O)[C@H](CCCCN)NC(=O)[C@@H](N)Cc1c[nH]c2ccccc12)C(=O)N[C@@H](C)C(=O)N[C@H]1CCCCNC/C=C/CNCCCC[C@@H](C(=O)N[C@@H](CCCCN)C(=O)N[C@@H](CC(C)C)C(=O)NCC(=O)N[C@@H](CCCNC(=N)N)C(=O)N[C@@H](C)C(=O)N[C@@H](CCCCN)C(=O)N[C@@H](CC(C)C)C(=O)N[C@@H](Cc2ccccc2)C(=O)O)NC(=O)[C@H](CCCCN)NC(=O)[C@H](CC(C)C)NC(=O)[C@H](CCCNC(=N)N)NC1=O [VAE‐P3‐3‐St] (H-WKRIA[X1]RLK[X1]KLGRAKLF-OH; staple (E) 6-10) | 4 (≈ 1.74 µM) | 1 (≈ 0.436 µM) | 2–4 fold | 16 (≈ 6.98 µM) | 16 (≈ 6.98 µM) | 4 (≈ 1.74 µM) | 4 | Positive | – | – | –
CC[C@H](C)[C@H](NC(=O)[C@H](CCCNC(=N)N)NC(=O)[C@H](CCCCN)NC(=O)[C@@H](N)Cc1c[nH]c2ccccc12)C(=O)N[C@@H](C)C(=O)N[C@@H](CCCNC(=N)N)C(=O)N[C@H]1CCCCNC/C=C/CNCCCC[C@@H](C(=O)N[C@@H](CC(C)C)C(=O)NCC(=O)N[C@@H](CCCNC(=N)N)C(=O)N[C@@H](C)C(=O)N[C@@H](CCCCN)C(=O)N[C@@H](CC(C)C)C(=O)N[C@@H](Cc2ccccc2)C(=O)O)NC(=O)[C@H](CCCNC(=N)N)NC(=O)[C@H](CCCCN)NC(=O)[C@H](CC(C)C)NC1=O [VAE‐P3‐5‐St] (H-WKRIAR[X1]LKR[X1]LGRAKLF-OH; staple (E) 7-11) | 4 (≈ 1.72 µM) | 4 (≈ 1.72 µM) | – | 16 (≈ 6.89 µM) | 32 (≈ 13.8 µM) | 16 (≈ 6.89 µM) | – | Positive | – | – | –
GIGKFLHSAKKFGKAFVGEIMNS [Mag2, magainin II, reference compound] | – | – | – | – | – | – | – | – | – | – | significantly decreased
